Entries after “also recorded” stand apart in the source; their conditions may differ. Where two headings read alike, the source gives them in different places.
How the values were obtained:
mouse TNF-α = conditions: naproxen 15 mg/Kg orally 3 h prior to FUS1-nanoparticles 100 μg DNA i.v.
Protocol: In vivo experiments. To determine the effect of intravenous administration of FUS1-nanoparticles on inflammation and the potential use of inhibitors, in vivo experiments were conducted in immunocompetent female C3H mice. Mice were divided into three groups (n=5/group). […] Group 3 received intravenous injection of FUS1-nanoparticles only. The amount of plasmid DNA injected was 100 μg. […] At 2 h, 4 h, 6 h and 15 h after treatment with FUS1-nanoparticles, animals were euthanized and blood and organs (lung, liver, spleen) collected. Blood samples were analyzed for mouse TNF-α by ELISA (R&D Systems, MI). Tissue samples were analyzed for expression of inflammation-associated signaling molecules by western blotting (Ito et al., 2003).

lung tumor cells = conditions: luc-nanoparticles in the presence of naproxen
[1] = test system: p38MAPK, pJNK, p44/42MAPK, pATF2, pc-JUN, COX-2 in lung tissues; experiment: Inflammation-associated signaling molecules in lung tissues after FUS1-nanoparticles (western blot); type: in vivo, C3H mice; conditions: naproxen prior to FUS1-nanoparticles
[2] = test system: p38, JNK, ERK, pATF2, pcJun, STAT3, COX-2; experiment: Western blot of signaling molecules in lung, liver and spleen after FUS1-nanoparticle with or without naproxen; type: in vivo, C3H mice
Protocol: Western blot analysis for the Signaling molecules. At the time of western blot analysis, organs were slowly thawed on ice. […] Whole Cell lysates were collected in an Eppendorf tube and sonicated for 30 seconds and heated in a water bath at 95° C. for 5 mins and then centrifuged at 13000 rpm for 10 min at 4° C. The supernatants were mixed with 5% 2-mercaptoethanol and stored at −80° C. Protein concentrations was determined by BCA protein assay. Aliquots of cell extracts containing 50 μg of total protein were resolved in 10% SDS-PAGE and transferred from gel to nitrocellulose membrane (Hybond-ECL; Amersham Pharmacia Biotech, UK) and then blocked for 1 h at room temperature (5% nonfat milk powder and 0.1% Tween 20 in TBS or PBS). Then the membranes were incubated with the primary antibodies, phosphospcific p38 (1:1000), phosphospecific pJNK (1:1000), phosphospecific p44/42 (1:1000), phospho ATF2 (1:1000), phospho cJun (1:1000), phospho STAT3 (1:1000) and COX-2 (1:1000). The membranes were then incubated with HRP-conjugated rabbit IgG Ab (Amersham) and the bound antibodies were visualized by enhanced chemiluminescence (Amersham; Piscataway, N.J.). The expression of α-actin was used as the loading control.

[3] = test system: p38MAPK, JNK, p44/42 MAPK, ATF2, cJun, STAT3, COX-2 in RAW 264.7 cells; experiment: Signaling molecules in RAW 264.7 macrophage cells transfected with FUS1-nanoparticle (western blot); type: cell-based, Mouse
Protocol: (§1) In vitro experiments. To determine the effect of nanoparticle-FUS1 complex on the activation of signaling molecules associated with inflammation, RAW macrophage cells were seeded in six-well plates (1×10^6 cells/well) and incubated overnight at 37° C. and 5% CO2. The following day, tissue culture medium was replaced with fresh 0.2% medium and incubated overnight at 37° C. and 5% CO2. […] Two-three hours after treatment, cells were transfected with FUS1-nanoparticle (2.5 μg DNA) in 0.2% serum medium. Cells were harvested at different time-points (2 h, 4 h, 15 h) after transfection, washed, and cell lysates prepared as previously described (Ramesh et al., 2001a). Untransfected cells treated with PBS served as control in these experiments. Cell lysates were subjected to western blotting analysis and probed with various antibodies as previously described (Ito et al., 2003). In all the experiments, β-actin was detected using anti-β-actin antibody (Sigma Chemicals, St. Louis, Mo.) as a measure of internal loading control.

[4] = test system: p38MAPK, pJNK, p44/42MAPK, pATF-2, pc-Jun, COX-2 in MRC-9 fibroblast cells; experiment: Inflammation-associated signaling molecules in MRC-9 cells transfected with FUS1-nanoparticles (western blot); type: cell-based, Human; conditions: naproxen 0.5 mM prior to FUS1-nanoparticles
Protocol: as §1, with “FUS1-nanoparticles” for “nanoparticle-FUS1 complex”, “MRC-9 fibroblast” for “RAW macrophage”, “(5×10^5” for “(1×10^6”, “cells/well)” for “cells/well) and incubated overnight at 37° C. and 5% CO2. The following day, tissue culture medium was replaced with fresh 0.2% medium”, “FUS1-nanoparticles” for “FUS1-nanoparticle”, “(Ramesh et al., 2001b; Ito” for “(Ito”

C3H mice [5] = test system: C3H mice
AP-1 = AP-1 DNA binding activity, electrophoretic mobility shift assay in MRC-9 cells; type: cell-based, Human; conditions: naproxen pretreatment before FUS1-nanoparticles
Protocol: Electrophoretic mobility shift assay (EMSA). MRC-9 cells were seeded in six well plates at 1.3×10^6 cells/well for EMSA. […] Cells were harvested at 2, 4 and 15 h after transfection and nuclear extracts prepared. To the nuclear extracts (10 μg), DNA binding reaction mixture containing [γ-^32P]-ATP radiolabeled AP-1 oligonucleotide and 0.5 μg poly (dI-dC) were added and incubated at 25° C. for 30 min in 5× gel shift binding buffer [20% glycerol, 5 mM MgCl2 2.5 mM EDTA, 2.5 mM DTT, 250 mM NaCl, 50 mM Tris-HCl (pH 7.5)]. The complexes were subsequently resolved on 5% nondenaturing polyacrylamide gels in 0.5×Tris-borate EDTA buffer for 1 h 30 min at 300 V. The bands were visualized by autoradiography.

luciferase expression = experiment: Luciferase transgene expression in cells transfected with luc-nanoparticles; type: cell-based, Human; conditions: naproxen prior to luc-nanoparticles; 2 h, 4 h, 15 h
Protocol: To determine the effect of inhibitors on transgene expression, cells were transfected with a marker gene, luciferase (luc), complexed with DOTAP:Chol. nanoparticles (luc-nanopartilces). All other experimental conditions were the same as described above. Luciferase expression was determined using the luciferase assay kit (Promega, Madison, Wis.) as previously described (Ramesh et al., 2001b). Luciferase expression was expressed as relative light units per mg of protein (RLU/mg). Assays were performed in triplicates. Experiments were performed two times and the results represented as the average of two separate experiments.

[6] = test system: luciferase expression in RAW 264.7 cells; conditions: RAW 264.7, 0.5 mM naproxen pretreatment
Protocol: To determine the effect of inhibitors on transgene expression, cells were transfected with a marker gene, luciferase (luc), complexed with nanoparticle. All other experimental conditions were the same as described above. […] Luciferase expression was expressed as relative light units per mg of protein (RLU/mg). Assays were performed in triplicates. Experiments were performed two times and the results represented as the average of two separate experiments.

C3H mice [7] = type: in vivo; conditions: for protection: alive on day 14
Protocol: In vivo treatment of immunocompetent animals by intravenous injection of DOTAP:Cholesterol-FUS1 complex. Female C3H mice were divided into 3 groups (n=5/group). […] Complexes were injected intravenously via tail vein in a total volume of 200 μl. Animals were monitored initially at 1, 2, 6, 24, 48 hr and later every day until day 14. Animals that appeared morbid or moribund were euthanized by CO2 inhalation and various organs (lung, liver, kidneys, spleen, heart) were collected in buffered formalin and submitted for histopathological examination. Organs were also collected from animals that were dead, and these were submitted for histopathological analyses.

PGE2 production = PGE2 production assay in cells transfected with FUS1-nanoparticles; type: cell-based, Human; conditions: naproxen 0.5 mM prior to FUS1-nanoparticles
Protocol: PGE2 production assay. Cells were seeded in 6-well plates (1-3×10^6 cells/well) and incubated at 37° C. Twenty-four hours later, the culture medium was replaced and replenished with fresh medium supplemented with 0.2% serum. […] At 3.5 h after treatment cells were transfected with FUS1-nanoparticles (2.5 μg DNA). The amount of PGE2 secreted into the culture supernatant at various time (2 h, 4 h, and 15 h) points was determined using the PGE2 enzyme immunoassay (Cayman Chemicals, Ann Arbor, Mich.). Assay was performed according to manufacturer's protocol.

For `COc1ccc2cc([C@H](C)C(=O)O)ccc2c1` [Naproxen, naproxen], the “TNF-α expression levels in blood at 2 h” value (mouse TNF-α) was 411 pg/mL, the transgene expression (lung tumor cells) was “Enhanced transgene expression” and the “activation of signaling molecules in lung” value [1] was “markedly suppressed”. The “phosphorylation of JNK, ATF-2, cJun, STAT3 ser727 and Tyr 705 in liver and spleen” value ([2]; naproxen 15 mg/kg) was “inhibited”, the “p38 phosphorylation in lung” value ([2]; naproxen 15 mg/kg 2 h before FUS1-nanoparticle, all time points) was “complete inhibition” and the “JNK and ERK phosphorylation in lung” value ([2]; naproxen 15 mg/kg, 2 and 4 h) was “partial inhibition”. For the same molecule, the “COX-2 induced by FUS1-nanoparticle” value ([2]; naproxen 15 mg/kg, 2 h) was “inhibition”, the “phosphorylation of ATF-2, cJUN and STAT3 (Ser 727, Tyr705) in lung” value ([2]; naproxen 15 mg/kg, 4 h and 15 h) was “inhibited” and the “p38MAPK, pJNK, pATF-2 and pcjun” value ([3]; RAW 264.7, 0.5 mM naproxen pretreatment, 2 and 4 h) was “significantly inhibited”. The “phosphorylation of STAT 3” value ([3]; RAW 264.7, 0.5 mM naproxen, 4 and 15 h) was “inhibited”, the “expression of COX-2” value ([3]; RAW 264.7, 0.5 mM naproxen, 4 h) was “inhibited” and the “expression of downstream substrates pATF-2, pc-Jun and COX-2” value [4] was “decreased expression”. For the same molecule, the “expression of p38MAPK, pJNK and p44/42MAPK” value [4] was “significant inhibition”, the percentage of survival (C3H mice [5]; naproxen 5 mg/kg orally 2 to 3 h before FUS1-nanoparticle (100 μg FUS1)) was 50% and the percentage of survival (C3H mice [5]; naproxen 15 mg/kg orally 2 to 3 h before FUS1-nanoparticle (100 μg FUS1)) was 100%. For the same molecule, the “AP-1 DNA binding activity” value (AP-1) was “inhibition of AP-1 activity”, the “luciferase activity (RLU/mg protein), naproxen treated vs untreated” value (luciferase expression) was “greatly increased; also recorded: slight increase in luciferase activity” and the “transgene (luciferase) expression” value [6] was “did not inhibit transgene (luciferase) expression but rather slightly enhanced the transgene expression over time”. The protection (C3H mice [7]; naproxen 5 mg/kg orally 2 hour prior to complex (100 μg DNA) i.v.) was 60%, the protection (C3H mice [7]; naproxen 15 mg/kg orally 2 hour prior to complex (100 μg DNA) i.v.) was 100% and the “Diagnosis (histopathology)” value (C3H mice [7]; naproxen before complex, 15 hr) was “almost completely prevented all the inflammatory features except moderate lymphoid atrophy spleen”. The “inhibition of PGE2” value (PGE2 production) was “almost complete; also recorded: significantly inhibition in PGE2 levels” and the “secreted PGE2 levels” value (PGE2 production; 2-15 h) was 33 to 120 pg/mL.
